For 1 compound, EC50 results are on record in patent US5185377A, “Diphenyl compounds which inhibit arachidonic acid metabolism, and their use in pharmaceutical compositions” (Ciba-Geigy Corporation, priority 1990, dated 1993).

Assay [1] concerns isolated lung parenchyma strips. Description: Arachidonic acid-induced contraction of isolated lung parenchyma strips. Format: cell-based, guinea-pig. To be noted: Cavia porcellus, read-out: ED50 (concentration-related contraction). As for the experimental part:
(§1) Testing of antiasthmatic active qualities of triclosan and fenticlor in vitro is carried out on isolated tracheal spirals and lung parenchyma strips of adult guinea-pigs (250-500 g) of both sexes. The tracheal spirals are prepared by the method described by Constantine [J. W. Constantine et al., J. Pharm. Pharmacol. 17, 384 (1965)]. Particular emphasis is placed on complete removal of the surrounding connective tissue and on maintaining the integrity of the epithelium [N. A. Flavahan et al., J. Appl. Physiol. 58, 834 (1985)].
(§2) The lung parenchyma strip is prepared in accordance with the method described by Del Monte [L. Del Monte et a., Naunym-Schmiedebergs Arch. Pharmacol., 338, 417 (1988)]. The contraction of the isolated organs is determined as isotonic measurement of the path under standardised conditions [J. Slapke et al., Biomed. Biochim. Acta 42, 1309 (1983)] in a multiple organ bath.
A modified Krebs-Henseleit solution (pH=7.4) of the following composition is used for the studies (m×mol 1^-1): NaCl 134.8, KCl 5.9, Tris 10.02, CaCl2 1.82, MgCl2 1.145, glucose 1.11. Air is used for gassing. The bath temperature is 37° C. for the lung parenchyma strips and 35° C. for the tracheal spirals. Conditioning of the preparations is performed several times with 5×10^-4 M acetylcholine to obtain the standardisation value, this substance subsequently being flushed out. In all studies, the contractions are induced by addition of arachidonic acid to the organ bath in increasing concentrations and are measured cumulatively. All the measurements are made in the present of 5 μM indomethacin.

The subject of assay [2] is isolated tracheal spirals. Description: Arachidonic acid-induced contraction of isolated tracheal spirals. Format: cell-based, guinea-pig. To be noted: Cavia porcellus, average, 35° C., 5 μM indomethacin present, read-out: ED50 (concentration-related contraction). The method, then: as §1, §2
A modified Krebs-Henseleit solution (pH=7.4) of the following composition is used for the studies (m×mol 1^-1): NaCl 134.8, KCl 5.9, Tris 10.02, CaCl2 1.82, MgCl2 1.145, glucose 1.11. Air is used for gassing. The bath temperature is 37° C. for the lung parenchyma strips and 35° C. for the tracheal spirals. […] In all studies, the contractions are induced by addition of arachidonic acid to the organ bath in increasing concentrations and are measured cumulatively. […]

As for `CCCCC/C=C\C/C=C\C/C=C\C/C=C\CCCC(=O)O` [Arachidonic acid, arachidonic acid], the EC50 in assay [1] stood at 100 µM; in assay [2], 50 µM.
